Results published in patent US20240228512A1, “ACYCLIC OXAZEPINE COMPOUNDS COMPRISING A 6-AZA MOIETY AND USES THEREOF” (Genentech, Inc., priority 2022, published 2024).

Assays:
SW620 cells = test: SW620 3D proliferation assay (CellTiter-Glo); type: cell-based; conditions: Homo sapiens, SW-620, 168 h, SW620, 3D culture, 7 days, read-out: SW620 CTG IC50
Description: (§1) SW620 and HPAC 3D proliferation assays.
(§2) Compound potencies were assessed in proliferation assays conducted with SW620 and HPAC cell lines grown in 3D cultures. Cells were seeded into 96- or 384-well ultra-low attachment plates at 3000 or 1000 cells/well, respectively, in culture medium (RPMI-1640, 10% FBS, 2 mM L-glutamine). The plated cells were centrifuged briefly, allowed to rest for 30 minutes under ambient conditions, and cultured overnight at 37° C./5% CO2 to initiate the formation of spheroids. Compound dilutions were prepared across a range of concentrations in DMSO and added to the appropriate wells of the assay plates with a 333-fold dilution into the culture medium. The plates were further incubated for 7 days. The quantity of viable cells was assessed using CellTiter-Glo 3D Cell Viability Assay (Promega). The detection reagent penetrates the spheroids and lyses the cells. The released ATP that was detected with luciferase and a luciferase substrate to generate a luminescent readout. […] The data points were fit to a 4-parameter logistic equation to determine IC50 values.

[1] = biological target: recombinant human KRAS wild type (SOS1-mediated nucleotide exchange) (Homo sapiens (Human), UniProt P01116); test: KRAS biochemical assay, BODIPY-GDP exchange TR-FRET (WT-GDP HTRF)
Description: [Worded in the source for another variant; this variant is reported under the same test.] KRAS Biochemical Assay—BODIPY-GDP Exchange TR-FRET.
Biochemical compound potencies were assessed by evaluating inhibition of SOS1-mediated nucleotide exchange in KRAS G12D. The SOS1-promoted exchange of fluorescently-labeled GDP (BOPIDY-GDP) was monitored by time-resolved fluorescence resonance energy transfer (TR-FRET). Compounds solubilized in DMSO were dispensed as concentration series into 384-well white assay plates. […] The reaction was initiated with the addition of 5 μL of 3 nM recombinant human SOS1 and 300 nM BODIPY-GDP in assay buffer. After a 60-minute incubation, the fluorescence was measured with excitation at 337 nm and emission at 490 and 520 nm. The TR-FRET ratio was determined as the fluorescence at 520 nm divided by the fluorescence at 490 nm multiplied by 10,000. […] The normalized TR-FRET results were plotted against compound concentration, and the data fit to a 4-parameter Hill equation to determine the IC50 values.

H1975 cells = test: H1975 CTG proliferation assay; type: cell-based; conditions: Homo sapiens, NCI-H1975, H1975, CTG
[2] = biological target: recombinant human mutant KRas G12V (SOS1-mediated nucleotide exchange) (Homo sapiens (Human), UniProt P01116, G12V); test: KRAS biochemical assay, BODIPY-GDP exchange TR-FRET (G12V-GDP HTRF)
SW620 PERK = SW620 PERK assay; type: cell-based; conditions: Homo sapiens, SW-620, SW620, PERK
HPAC cells = test: HPAC 3D proliferation assay (CellTiter-Glo); type: cell-based; conditions: Homo sapiens, 168 h, 3D culture, 7 days, read-out: HPAC CTG IC50
Description: as §1, §2

Chain of recombinant human KRAS wild type (SOS1-mediated nucleotide exchange) (P01116-2 other isoform, or with tags, fused parts or gaps): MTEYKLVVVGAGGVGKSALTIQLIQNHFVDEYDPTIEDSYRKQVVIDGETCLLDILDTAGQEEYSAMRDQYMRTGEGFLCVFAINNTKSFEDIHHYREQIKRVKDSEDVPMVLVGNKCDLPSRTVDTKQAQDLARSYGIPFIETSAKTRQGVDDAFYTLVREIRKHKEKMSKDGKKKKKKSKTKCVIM
Chain of recombinant human mutant KRas G12V (SOS1-mediated nucleotide exchange) (P01116-2 other isoform, or with tags, fused parts or gaps G12V): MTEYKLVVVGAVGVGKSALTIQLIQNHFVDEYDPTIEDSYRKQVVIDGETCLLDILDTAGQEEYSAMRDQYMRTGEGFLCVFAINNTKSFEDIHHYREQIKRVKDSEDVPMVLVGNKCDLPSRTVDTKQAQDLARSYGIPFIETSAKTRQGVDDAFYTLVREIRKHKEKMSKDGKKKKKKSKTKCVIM

Structure (SMILES)	IC50 (SW620 cells)	IC50 [1]	IC50 (H1975 cells)	IC50 [2]	IC50 (SW620 PERK)	IC50 (HPAC cells)
Cc1c(F)c(N)cc(-c2nc3c4c(nc(OC[C@@H]5CC(F)(F)CN5C)nc4c2F)N([C@H](C)c2nccnc2N)CCO3)c1C(F)(F)F [Example 8, 3-((R)-1-(5-(5-amino-4-fluoro-3-methyl-2-(trifluoromethyl)phenyl)-2-(((S)-4,4-difluoro-1-methylpyrrolidin-2-yl)methoxy)-4-fluoro-8,9-dihydro-10H-7-oxa-1,3,6,10-tetraazacyclohepta[de]naphthalen-10-yl)ethyl)pyrazin-2-amine]	456 nM		555 nM		139 nM	2000 nM
Cc1c(F)c(N)cc(-c2nc3c4c(nc(OC[C@@H]5CC[C@H]6COCCN65)nc4c2F)N([C@H](C)c2nccnc2N)CCO3)c1C(F)(F)F [Example 10, 3-((R)-1-(5-(5-amino-4-fluoro-3-methyl-2-(trifluoromethyl)phenyl)-4-fluoro-2-(((6S,8aS)-hexahydro-1H-pyrrolo[2,1-c][1,4]oxazin-6-yl)methoxy)-8,9-dihydro-10H-7-oxa-1,3,6,10-tetraazacyclohepta[de]naphthalen-10-yl)ethyl)pyrazin-2-amine]	114 nM		53.4 nM		29.9 nM	439 nM
C#Cc1cccc2cc(O)cc(-c3nc4c5c(nc(OC[C@@]67CCCN6C[C@H](F)C7)nc5c3F)N([C@H](C)c3nccnc3N)CCO4)c12 [Example 11, 4-(10-((R)-1-(3-aminopyrazin-2-yl)ethyl)-4-fluoro-2-(((2R,7aS)-2-fluorotetrahydro-1H-pyrrolizin-7a(5H)-yl)methoxy)-9,10-dihydro-8H-7-oxa-1,3,6,10-tetraazacyclohepta[de]naphthalen-5-yl)-5-ethynyinaphthalen-2-ol]	5.32 nM		2.59 nM		1.9 nM	173 nM
C[C@H](c1cccnc1N)N1CCOc2nc(-c3cncc4cccc(Cl)c34)c(F)c3nc(OC[C@@]45CCCN4C[C@H](F)C5)nc1c23 [Example 19, 3-((R)-1-(5-(5-chloroisoquinolin-4-yl)-4-fluoro-2-(((2R,7aS)-2-fluorotetrahydro-1H-pyrrolizin-7a(5H)-yl)methoxy)-8,9-dihydro-10H-7-oxa-1,3,6,10-tetraazacyclohepta[de]naphthalen-10-yl)ethyl)pyridin-2-amine]		6.93 nM		0.85 nM	112 nM	
Cc1c(F)c(N)cc(-c2nc3c4c(nc(OC[C@@H]5CC(F)(F)CN5C)nc4c2F)N([C@H](C)c2cccnc2N)CCO3)c1C(F)(F)F [Example 20, 3-((R)-1-(5-(5-amino-4-fluoro-3-methyl-2-(trifluoromethyl)phenyl)-2-(((S)-4,4-difluoro-1-methylpyrrolidin-2-yl)methoxy)-4-fluoro-8,9-dihydro-10H-7-oxa-1,3,6,10-tetraazacyclohepta[de]naphthalen-10-yl)ethyl)pyridin-2-amine]	30.3 nM		421 nM		8.59 nM	484 nM
Cc1c(F)c(N)c(F)c(-c2nc3c4c(nc(OC[C@@H]5CCCN5C)nc4c2F)N([C@H](C)c2cccnc2N)CCO3)c1C(F)(F)F [Example 624, 3-((1R)-1-(5-(3-amino-2,4-difluoro-5-methyl-6-(trifluoromethyl)phenyl)-4-fluoro-2-(((S)-1-methylpyrrolidin-2-yl)methoxy)-8,9-dihydro-10H-7-oxa-1,3,6,10-tetraazacyclohepta[de]naphthalen-10-yl)ethyl)pyridin-2-amine]	11.5 nM		363 nM		5.56 nM	70.5 nM

Continued, in another order:

IC50 (SW620 cells)	IC50 [1]	IC50 (H1975 cells)	IC50 [2]	IC50 (SW620 PERK)	Structure (SMILES)	IC50 (HPAC cells)
6.14 nM	0.255 nM	47.6 nM	0.07 nM		Cc1nc(N)c(Cl)c(-c2nc3c4c(nc(OC[C@@]56CCCN5C[C@H](F)C6)nc4c2F)N([C@H](C)c2cccnc2N)CCO3)c1C(F)(F)F (single isomer, unassigned) [Example 601a]	
	3.16 nM		0.76 nM		Cc1nc(N)c(Cl)c(-c2nc3c4c(nc(OC[C@@]56CCCN5C[C@H](F)C6)nc4c2F)N([C@H](C)c2cccnc2N)CCO3)c1C(F)(F)F (single isomer, unassigned) [Example 601b]	
26.2 nM		11.2 nM		19.3 nM	Cc1c(F)c(N)cc(-c2nc3c4c(nc(OC[C@@]56CCCN5C[C@H](F)C6)nc4c2F)N([C@H](C)c2nccnc2N)CCO3)c1C(F)(F)F [Example 9, 3-((R)-1-(5-(5-amino-4-fluoro-3-methyl-2-(trifluoromethyl)phenyl)-4-fluoro-2-(((2R,7aS)-2-fluorotetrahydro-1H-pyrrolizin-7a(5H)-yl)methoxy)-8,9-dihydro-10H-7-oxa-1,3,6,10-tetraazacyclohepta[de]naphthalen-10-yl)ethyl)pyrazin-2-amine]	74.7 nM
26.7 nM		73.4 nM			Cc1c(F)c(N)c(F)c(-c2nc3c4c(nc(OC[C@@]56CCCN5C[C@H](F)C6)nc4c2F)N([C@H](C)c2nccnc2N)CCO3)c1C(F)(F)F [Example 13, 3-((1R)-1-(5-(3-amino-2,4-difluoro-5-methyl-6-(trifluoromethyl)phenyl)-4-fluoro-2-(((2R,7aS)-2-fluorotetrahydro-1H-pyrrolizin-7a(5H)-yl)methoxy)-8,9-dihydro-10H-7-oxa-1,3,6,10-tetraazacyclohepta[de]naphthalen-10-yl)ethyl)pyrazin-2-amine]	
31.6 nM		32.5 nM		7.33 nM	Cc1cc(N)c(F)c(-c2nc3c4c(nc(OC[C@@]56CCCN5C[C@H](F)C6)nc4c2F)N([C@H](C)c2nccnc2N)CCO3)c1C(F)(F)F [Example 23, 3-((1R)-1-(5-(3-amino-2-fluoro-5-methyl-6-(trifluoromethyl)phenyl)-4-fluoro-2-(((2R,7aS)-2-fluorotetrahydro-1H-pyrrolizin-7a(5H)-yl)methoxy)-8,9-dihydro-10H-7-oxa-1,3,6,10-tetraazacyclohepta[de]naphthalen-10-yl)ethyl)pyrazin-2-amine]	92 nM
2.25 nM		7.12 nM		2.45 nM	Cc1c(F)c(N)cc(-c2nc3c4c(nc(OC[C@@]56CCCN5C[C@H](F)C6)nc4c2Cl)N([C@H](C)c2cccnc2N)CCO3)c1C(F)(F)F [Example 32, 3-((R)-1-(5-(5-amino-4-fluoro-3-methyl-2-(trifluoromethyl)phenyl)-4-chloro-2-(((2R,7aS)-2-fluorotetrahydro-1H-pyrrolizin-7a(5H)-yl)methoxy)-8,9-dihydro-10H-7-oxa-1,3,6,10-tetraazacyclohepta[de]naphthalen-10-yl)ethyl)pyridin-2-amine]	18.7 nM
28.4 nM		2500 nM		15.6 nM	Cc1c(F)c(N)cc(-c2nc3c4c(nc(OC[C@@]56CCCN5C[C@H](F)C6)nc4c2F)N([C@H](C)c2cccnc2N)CCO3)c1CC(F)F [Example 612, 3-((R)-1-(5-(5-amino-2-(2,2-difluoroethyl)-4-fluoro-3-methylphenyl)-4-fluoro-2-(((2R,7aS)-2-fluorotetrahydro-1H-pyrrolizin-7a(5H)-yl)methoxy)-8,9-dihydro-10H-7-oxa-1,3,6,10-tetraazacyclohepta[de]naphthalen-10-yl)ethyl)pyridin-2-amine]	359 nM
30.6 nM		97.7 nM		22.1 nM	C[C@H](c1cccnc1N)N1CCOc2nc(-c3c(C(F)(F)F)cc(F)c(N)c3F)c(F)c3nc(OC[C@@]45CCCN4C[C@H](F)C5)nc1c23 [Example 621, 3-((1R)-1-(5-(3-amino-2,4-difluoro-6-(trifluoromethyl)phenyl)-4-fluoro-2-(((2R,7aS)-2-fluorotetrahydro-1H-pyrrolizin-7a(5H)-yl)methoxy)-8,9-dihydro-10H-7-oxa-1,3,6,10-tetraazacyclohepta[de]naphthalen-10-yl)ethyl)pyridin-2-amine]	339 nM
612 nM		3660 nM		85.2 nM	C[C@H](c1cccnc1N)N1CCOc2nc(-c3c(F)ccc4cnn(C)c34)c(F)c3nc(OC[C@@]45CCCN4C[C@H](F)C5)nc1c23 [Example 634, 3-((1R)-1-(4-fluoro-5-(6-fluoro-1-methyl-1H-indazol-7-yl)-2-(((2R,7aS)-2-fluorotetrahydro-1H-pyrrolizin-7a(5H)-yl)methoxy)-8,9-dihydro-10H-7-oxa-1,3,6,10-tetraazacyclohepta[de]naphthalen-10-yl)ethyl)pyridin-2-amine]	1750 nM
